In patent publication US12612387B2, “RAS inhibitors and methods of using the same” (Jazz Pharmaceuticals Ireland Limited, priority 2020, dated 2026):

How the values were obtained:
K-RAS G12D = molecular target: T1, K-RAS G12D (Homo sapiens, UniProt P01116, G12D); test: Compound depletion assay, K-RAS G12D; assay type: binding; conditions: G12D protein 20 μM, compound 8 μM, 25° C.
T1 construct: His tag; purchased Stratech
In short: (§1)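 His-tagged K-RAS (20 μM) in 20 mM HEPES pH 7.5, 150 mM NaCl, 1 mM MgCl2 incubated with 8 μM compound (final) at 25 °C with agitation. At 0, 30, 180, 360, 1440 min, samples were acid/acetonitrile-quenched and remaining free compound quantified by LC-MS/MS against propranolol, as percent of time zero.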

K-RAS G12C = molecular target: T2, K-RAS G12C (Homo sapiens, UniProt P01116, G12C); test: Compound depletion assay, K-RAS G12C; assay type: binding; conditions: G12C protein 20 μM, compound 8 μM, 25° C.
T2 construct: His tag; purchased Stratech
In short: as §1

T1 sequence (P01116 1-188 isoform P01116-2 G12D): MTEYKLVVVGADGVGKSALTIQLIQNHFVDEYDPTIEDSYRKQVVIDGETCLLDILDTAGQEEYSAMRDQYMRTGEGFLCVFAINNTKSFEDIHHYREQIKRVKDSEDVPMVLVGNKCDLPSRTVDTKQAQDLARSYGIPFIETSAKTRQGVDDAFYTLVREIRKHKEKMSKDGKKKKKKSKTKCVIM
T2 sequence (P01116 1-188 isoform P01116-2 G12C): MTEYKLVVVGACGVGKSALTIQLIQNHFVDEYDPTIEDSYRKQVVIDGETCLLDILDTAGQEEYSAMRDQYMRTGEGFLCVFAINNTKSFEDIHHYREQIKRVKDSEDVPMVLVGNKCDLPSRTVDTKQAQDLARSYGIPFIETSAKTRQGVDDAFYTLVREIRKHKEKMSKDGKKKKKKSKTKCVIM

Compound: C=CC(=O)N1CCN(c2cc(C(=O)Nc3cc(O)cc4ccccc34)nc(NCCC3CCCN3C)n2)C[C@@H]1CC#N (stereo partly drawn) [Example 30, 6-[(3S)-3-(cyanomethyl)-4-prop-2-enoyl-piperazin-1-yl]-N-(3-hydroxy-1-naphthyl)-2-[2-(1-methylpyrrolidin-2-yl)ethylamino]pyrimidine-4-carboxamide]
- 30 min Category (compound remaining at timepoint) (K-RAS G12D): A (≥70% compound remaining at timepoint)
- 3 hr Category (compound remaining at timepoint) (K-RAS G12D): A (≥70% compound remaining at timepoint)
- 6 hr Category (compound remaining at timepoint) (K-RAS G12D): A (≥70% compound remaining at timepoint)
- 30 min Category (compound remaining at timepoint) (K-RAS G12C): B (30%-70% compound remaining at timepoint)
- 3 hr Category (compound remaining at timepoint) (K-RAS G12C): C (≤30% compound remaining at timepoint)
- 6 hr Category (compound remaining at timepoint) (K-RAS G12C): C (≤30% compound remaining at timepoint)

Compound: C=CC(=O)N1CCN(c2cc(C(=O)Nc3cc(O)cc4ccccc34)nc(-c3ccccn3)n2)C[C@@H]1CC#N [Example 31, 6-[(3S)-3-(cyanomethyl)-4-prop-2-enoyl-piperazin-1-yl]-N-(3-hydroxy-1-naphthyl)-2-(2-pyridyl)pyrimidine-4-carboxamide]
- 30 min Category (compound remaining at timepoint) (K-RAS G12D): A (≥70% compound remaining at timepoint)
- 3 hr Category (compound remaining at timepoint) (K-RAS G12D): A (≥70% compound remaining at timepoint)
- 6 hr Category (compound remaining at timepoint) (K-RAS G12D): A (≥70% compound remaining at timepoint)
- 30 min Category (compound remaining at timepoint) (K-RAS G12C): A (≥70% compound remaining at timepoint)
- 3 hr Category (compound remaining at timepoint) (K-RAS G12C): B (30%-70% compound remaining at timepoint)
- 6 hr Category (compound remaining at timepoint) (K-RAS G12C): B (30%-70% compound remaining at timepoint)

Compound: C=CC(=O)N1CCN(c2cc(C(=O)Nc3cc(O)cc4ccccc34)nc(-c3ccc4cnn(C)c4c3)n2)C[C@@H]1CC#N [Example 32, 6-[(3S)-3-(cyanomethyl)-4-prop-2-enoyl-piperazin-1-yl]-N-(3-hydroxy-1-naphthyl)-2-(1-methylindazol-6-yl)pyrimidine-4-carboxamide]
- 30 min Category (compound remaining at timepoint) (K-RAS G12D): A (≥70% compound remaining at timepoint)
- 3 hr Category (compound remaining at timepoint) (K-RAS G12D): A (≥70% compound remaining at timepoint)
- 6 hr Category (compound remaining at timepoint) (K-RAS G12D): A (≥70% compound remaining at timepoint)
- 30 min Category (compound remaining at timepoint) (K-RAS G12C): A (≥70% compound remaining at timepoint)
- 3 hr Category (compound remaining at timepoint) (K-RAS G12C): A (≥70% compound remaining at timepoint)
- 6 hr Category (compound remaining at timepoint) (K-RAS G12C): A (≥70% compound remaining at timepoint)

Compound: C=CC(=O)N1CCN(c2cc(C(=O)Nc3cc(O)cc4ccccc34)nc(OC[C@H]3CCCN3C)n2)C[C@@H]1CC#N [Example 34, 6-[(3S)-3-(cyanomethyl)-4-prop-2-enoyl-piperazin-1-yl]-N-(3-hydroxy-1-naphthyl)-2-[[(2R)-1-methylpyrrolidin-2-yl]methoxy]pyrimidine-4-carboxamide]
- 30 min Category (compound remaining at timepoint) (K-RAS G12D): A (≥70% compound remaining at timepoint)
- 3 hr Category (compound remaining at timepoint) (K-RAS G12D): A (≥70% compound remaining at timepoint)
- 6 hr Category (compound remaining at timepoint) (K-RAS G12D): A (≥70% compound remaining at timepoint)
- 30 min Category (compound remaining at timepoint) (K-RAS G12C): B (30%-70% compound remaining at timepoint)
- 3 hr Category (compound remaining at timepoint) (K-RAS G12C): C (≤30% compound remaining at timepoint)
- 6 hr Category (compound remaining at timepoint) (K-RAS G12C): C (≤30% compound remaining at timepoint)

Compound: C=CC(=O)N1CCN(c2cc(C(=O)Nc3cc(O)cc4ccccc34)nc(OCc3ccnn3C)n2)C[C@@H]1CC#N [Example 35, 6-[(3S)-3-(cyanomethyl)-4-prop-2-enoyl-piperazin-1-yl]-N-(3-hydroxy-1-naphthyl)-2-[(2-methylpyrazol-3-yl)methoxy]pyrimidine-4-carboxamide]
- 30 min Category (compound remaining at timepoint) (K-RAS G12D): A (≥70% compound remaining at timepoint)
- 3 hr Category (compound remaining at timepoint) (K-RAS G12D): A (≥70% compound remaining at timepoint)
- 6 hr Category (compound remaining at timepoint) (K-RAS G12D): A (≥70% compound remaining at timepoint)
- 30 min Category (compound remaining at timepoint) (K-RAS G12C): B (30%-70% compound remaining at timepoint)
- 3 hr Category (compound remaining at timepoint) (K-RAS G12C): C (≤30% compound remaining at timepoint)
- 6 hr Category (compound remaining at timepoint) (K-RAS G12C): C (≤30% compound remaining at timepoint)

Compound: C=CC(=O)N1CCN(c2cc(C(=O)Nc3cc(O)cc4ccccc34)nc(NCc3cnn(C)c3)n2)C[C@@H]1CC#N [Example 36, 6-[(3S)-3-(cyanomethyl)-4-prop-2-enoyl-piperazin-1-yl]-N-(3-hydroxy-1-naphthyl)-2-[(1-methylpyrazol-4-yl)methylamino]pyrimidine-4-carboxamide]
- 30 min Category (compound remaining at timepoint) (K-RAS G12D): A (≥70% compound remaining at timepoint)
- 3 hr Category (compound remaining at timepoint) (K-RAS G12D): A (≥70% compound remaining at timepoint)
- 6 hr Category (compound remaining at timepoint) (K-RAS G12D): A (≥70% compound remaining at timepoint)
- 30 min Category (compound remaining at timepoint) (K-RAS G12C): A (≥70% compound remaining at timepoint)
- 3 hr Category (compound remaining at timepoint) (K-RAS G12C): A (≥70% compound remaining at timepoint)
- 6 hr Category (compound remaining at timepoint) (K-RAS G12C): B (30%-70% compound remaining at timepoint)

Compound: C=CC(=O)N1CCN(c2cc(C(=O)Nc3cc(O)cc4ccccc34)nc(N3CCN(CCO)CC3)n2)C[C@@H]1CC#N [Example 37, 6-[(3S)-3-(cyanomethyl)-4-prop-2-enoyl-piperazin-1-yl]-2-[4-(2-hydroxyethyl)piperazin-1-yl]-N-(3-hydroxy-1-naphthyl)pyrimidine-4-carboxamide]
- 30 min Category (compound remaining at timepoint) (K-RAS G12D): A (≥70% compound remaining at timepoint)
- 3 hr Category (compound remaining at timepoint) (K-RAS G12D): A (≥70% compound remaining at timepoint)
- 6 hr Category (compound remaining at timepoint) (K-RAS G12D): A (≥70% compound remaining at timepoint)
- 30 min Category (compound remaining at timepoint) (K-RAS G12C): B (30%-70% compound remaining at timepoint)
- 3 hr Category (compound remaining at timepoint) (K-RAS G12C): C (≤30% compound remaining at timepoint)
- 6 hr Category (compound remaining at timepoint) (K-RAS G12C): C (≤30% compound remaining at timepoint)

Compound: C=CC(=O)N1CCN(c2cc(C(=O)Nc3cc(O)cc4ccccc34)nc(-c3cccc4c3cnn4C)n2)C[C@@H]1CC#N [Example 38, 6-[(3S)-3-(cyanomethyl)-4-prop-2-enoyl-piperazin-1-yl]-N-(3-hydroxy-1-naphthyl)-2-(1-methylindazol-4-yl)pyrimidine-4-carboxamide]
- 30 min Category (compound remaining at timepoint) (K-RAS G12D): A (≥70% compound remaining at timepoint)
- 3 hr Category (compound remaining at timepoint) (K-RAS G12D): A (≥70% compound remaining at timepoint)
- 6 hr Category (compound remaining at timepoint) (K-RAS G12D): A (≥70% compound remaining at timepoint)
- 30 min Category (compound remaining at timepoint) (K-RAS G12C): A (≥70% compound remaining at timepoint)
- 3 hr Category (compound remaining at timepoint) (K-RAS G12C): A (≥70% compound remaining at timepoint)
- 6 hr Category (compound remaining at timepoint) (K-RAS G12C): A (≥70% compound remaining at timepoint)

Compound: C=CC(=O)N1CCN(c2cc(C(=O)Nc3cc(O)cc4ccccc34)nc(-c3cccc4cnn(C)c34)n2)C[C@@H]1CC#N [Example 39, 6-[(3S)-3-(cyanomethyl)-4-prop-2-enoyl-piperazin-1-yl]-N-(3-hydroxy-1-naphthyl)-2-(1-methylindazol-7-yl)pyrimidine-4-carboxamide]
- 30 min Category (compound remaining at timepoint) (K-RAS G12D): A (≥70% compound remaining at timepoint)
- 3 hr Category (compound remaining at timepoint) (K-RAS G12D): A (≥70% compound remaining at timepoint)
- 6 hr Category (compound remaining at timepoint) (K-RAS G12D): A (≥70% compound remaining at timepoint)
- 30 min Category (compound remaining at timepoint) (K-RAS G12C): A (≥70% compound remaining at timepoint)
- 3 hr Category (compound remaining at timepoint) (K-RAS G12C): B (30%-70% compound remaining at timepoint)
- 6 hr Category (compound remaining at timepoint) (K-RAS G12C): B (30%-70% compound remaining at timepoint)

Compound: C=CC(=O)N1CCN(c2cc(C(=O)Nc3cc(O)cc4ccccc34)nc(Cc3ccccc3)n2)C[C@@H]1CC#N [Example 40, 2-benzyl-6-[(3S)-3-(cyanomethyl)-4-prop-2-enoyl-piperazin-1-yl]-N-(3-hydroxy-1-naphthyl)pyrimidine-4-carboxamide]
- 30 min Category (compound remaining at timepoint) (K-RAS G12D): A (≥70% compound remaining at timepoint)
- 3 hr Category (compound remaining at timepoint) (K-RAS G12D): A (≥70% compound remaining at timepoint)
- 6 hr Category (compound remaining at timepoint) (K-RAS G12D): A (≥70% compound remaining at timepoint)
- 30 min Category (compound remaining at timepoint) (K-RAS G12C): A (≥70% compound remaining at timepoint)
- 3 hr Category (compound remaining at timepoint) (K-RAS G12C): A (≥70% compound remaining at timepoint)
- 6 hr Category (compound remaining at timepoint) (K-RAS G12C): A (≥70% compound remaining at timepoint)

Compound: C=CC(=O)N1CCN(c2cc(C(=O)Nc3cc(O)cc4ccccc34)nc(NCc3ccnn3C)n2)C[C@@H]1CC#N [Example 41, 6-[(3S)-3-(cyanomethyl)-4-prop-2-enoyl-piperazin-1-yl]-N-(3-hydroxy-1-naphthyl)-2-[(2-methylpyrazol-3-yl)methylamino]pyrimidine-4-carboxamide]
- 30 min Category (compound remaining at timepoint) (K-RAS G12D): A (≥70% compound remaining at timepoint)
- 3 hr Category (compound remaining at timepoint) (K-RAS G12D): A (≥70% compound remaining at timepoint)
- 6 hr Category (compound remaining at timepoint) (K-RAS G12D): A (≥70% compound remaining at timepoint)
- 30 min Category (compound remaining at timepoint) (K-RAS G12C): A (≥70% compound remaining at timepoint)
- 3 hr Category (compound remaining at timepoint) (K-RAS G12C): B (30%-70% compound remaining at timepoint)
- 6 hr Category (compound remaining at timepoint) (K-RAS G12C): B (30%-70% compound remaining at timepoint)

Compound: C=CC(=O)N1CCN(c2cc(C(=O)Nc3cc(O)cc4ccccc34)nc(OCc3cnn(C)c3)n2)C[C@@H]1CC#N [Example 42, 6-[(3S)-3-(cyanomethyl)-4-prop-2-enoyl-piperazin-1-yl]-N-(3-hydroxy-1-naphthyl)-2-[(1-methylpyrazol-4-yl)methoxy]pyrimidine-4-carboxamide]
- 30 min Category (compound remaining at timepoint) (K-RAS G12D): A (≥70% compound remaining at timepoint)
- 3 hr Category (compound remaining at timepoint) (K-RAS G12D): A (≥70% compound remaining at timepoint)
- 6 hr Category (compound remaining at timepoint) (K-RAS G12D): A (≥70% compound remaining at timepoint)
- 30 min Category (compound remaining at timepoint) (K-RAS G12C): B (30%-70% compound remaining at timepoint)
- 3 hr Category (compound remaining at timepoint) (K-RAS G12C): C (≤30% compound remaining at timepoint)
- 6 hr Category (compound remaining at timepoint) (K-RAS G12C): C (≤30% compound remaining at timepoint)
